This note sets out measurements from PubChem BioAssay (NCI).

Assay in all cases: DTP human tumour cell line panel, 48 h
In assay [1] the test system is 786-0 renal.
The test system of assay [2] is A498 renal.
Assay [3] deals with HL-60(TB) leukemia.
Assay [4] has as its system MALME-3M melanoma.
The subject of assay [5] is RPMI-8226 leukemia.
In assay [6] the test system is SK-MEL-28 melanoma.
Assay [7] relates to SK-MEL-5 melanoma.
Assay [8] concerns SR leukemia.
Assay [9] relates to TK-10 renal.
In assay [10] the test system is UO-31 renal.

Several values for one entry are separate records, joined by “and”; a condition that tells them apart may be missing. Equal entries are not always repeated.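 In this assay, cells in 96-well plates receive the compound at five concentrations for 48 hours. Endpoints are linearly interpolated between the surrounding concentrations. GI50 marks 50% less growth. TGI: total growth inhibition.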 Some results are limits rather than exact numbers.

Turning to `COc1ccc2c(c1)OCC1c3cc(OC)ccc3OC21` (stereo not given), the GI50 (usually the concentration that inhibits growth by half) in assay [1] was over 100 µM; in assay [2], 63.1 µM; in [3], 4.93 µM; in [4], over 100 µM; in assay [5] it was 21.5 µM; in [6], 91.2 µM. In addition, the GI50 is 28.4 µM in assay [7], 1.44 µM in [8], over 100 µM in assay [9] and 39 µM in assay [10]. Besides, the TGI in assay [1], in [2], in assay [3], in [4], in assay [5] and in assay [6] was over 100 µM in each case. For the same molecule, the TGI (commonly the concentration giving total growth inhibition) is 86.1 µM in assay [7], 29.6 µM in assay [8], over 100 µM in [9] and over 100 µM in [10].

In the case of `CCc1cccc(CC)c1NC1=CC(=O)C(=O)c2ccccc21`, the TGI was 44.9 µM in assay [1]; 39.5 µM in assay [2]; over 100 µM in [3]; 31.9 µM in assay [4]; over 100 µM in [5]; 37.4 µM in assay [6]. The concentration for total growth inhibition (TGI) in assay [7] is 21.6 µM; in assay [8], over 100 µM; in assay [9], 56.3 µM; in assay [10], 46.9 µM.

Turning to `N=C(N)c1ccc(-c2ccc(-c3cccs3)s2)cc1F`, the GI50 in assay [1] is 1.14 µM; in assay [2] it was 0.156 µM; in assay [3], 1.79 µM; in assay [4] it was 2.28 µM; in assay [5], 0.288 µM; in assay [6] it was 1.45 µM. Also, the GI50 is 1.27 µM in assay [7], 0.341 µM in assay [8], 1.61 µM in [9] and 1.55 µM in assay [10]. Also, the TGI in assay [1] came out at 2.63 µM; in [2] it was 0.621 µM; in [3], 3.83 µM; in [4] it was 4.48 µM; in [5], 0.951 µM; in assay [6], 3.09 µM. Further, the TGI in assay [7] is 2.69 µM; in assay [8] it was 1.07 µM; in assay [9] it was 3.03 µM; in [10], 3.34 µM.

Take `CC(=O)NNc1nc(C)c(C(=O)NNC(=O)C(=O)Nc2ccc(C)cc2[N+](=O)[O-])s1`: the TGI in [1], in [2], in [3], in [4], in assay [5] and in assay [6] was over 100 µM throughout. Moreover, the TGI in assay [7], in assay [8], in [9] and in assay [10] was over 100 µM each time.

For the molecule `CC(C)OC(=O)OCOP(=O)(OCOC(=O)OC(C)C)C1CCCN(O)C1=O` (stereo not given), the GI50 in assay [1] is 0.407 µM; in assay [2], 0.0732 µM; in assay [3], 2.48 µM; in assay [4], 0.856 µM; in [5] it was 0.737 µM; in assay [6], 0.739 µM. Further, the GI50 in assay [7] was 1.3 µM; in [8], 1.25 µM; in assay [9], 1.54 µM; in assay [10] it was 0.197 µM. In addition, the TGI was over 100 µM in assay [1]; 0.867 µM in [2]; over 100 µM in assay [3]; over 100 µM in [4]; 14.5 µM in assay [5]; 7.83 µM in assay [6]. Besides, the TGI is 7.3 µM in assay [7], over 100 µM in assay [8], over 100 µM in assay [9] and 68.1 µM in assay [10].

Consider `Cc1c(Cl)ccc2[s+]snc12`, for which the TGI is 36.2 µM in assay [1]; over 100 µM in [2]; 43.7 µM in assay [3]; over 100 µM in assay [4]; over 100 µM in [6]; 52.1 µM in assay [7]. In addition, the TGI in assay [8], in assay [9] and in assay [10] was over 100 µM throughout.

Turning to `CC1(C)N=C(N)N=C(N)N1c1cccc(CC(=O)Nc2ccccc2)c1`, the GI50 in [1] was 78.5 µM; in assay [2], 22.8 µM; in assay [3], 6 µM; in assay [4], 58.6 µM; in assay [6], 9.15 µM; in assay [7], 4.44 µM. The GI50 was 2.53 µM in assay [8], over 100 µM in assay [9] and over 100 µM in assay [10]. Also, the TGI in [1] was over 100 µM; in [2], over 100 µM; in [3], over 100 µM; in assay [4] it was over 100 µM; in [6], 77 µM; in assay [7], over 100 µM. Moreover, the TGI in assay [8], in assay [9] and in assay [10] was over 100 µM throughout.

For `COc1cc2nc(NC3CCC3)nc(NC3CCN(C(C)C)CC3)c2cc1OC`, the GI50 is 1.85 µM in assay [1]; 1.24 µM in assay [2]; 2.06 µM in assay [3]; 1.76 µM in assay [4]; 1.71 µM in assay [5]; 1.94 µM in [6]. The values for the GI50 in [7], in assay [8] and in [10] were 1.75 µM, 0.631 µM and 1.43 µM, respectively. The TGI is 3.91 µM in assay [1]; 7.05 µM in assay [2]; 4.05 µM in [3]; 3.23 µM in assay [4]; 4.06 µM in assay [5]; 3.66 µM in assay [6]. For the same molecule, the TGI in assay [7] stood at 3.15 µM; in [8], 3.33 µM; in assay [10] it was 2.78 µM.

For the molecule `Cc1cc2c(=O)cc(-c3ccncc3)oc2c(C(N)=O)c1C`, the TGI in assay [1], in assay [3], in [4], in assay [5], in [6] and in assay [8] was over 100 µM in each case. Also, the TGI in assay [9] and in assay [10] was over 100 µM in each case.

For `N#CC1(C2CC(=O)N(c3ccccc3)C2=O)CCCCC1=O` (stereo not given), the TGI in assay [1], in assay [3], in assay [4], in assay [5], in assay [6] and in [7] was over 100 µM throughout. Also, the TGI in assay [8], in [9] and in assay [10] was over 100 µM in each case.

For `COc1ncc(-c2ccc3nc(N)n(-c4ccccc4C(F)(F)F)c(=O)c3c2)cc1S(=O)(=O)Nc1ccc(F)cc1F`, the GI50 was 3.16 µM in [1]; 0.329 µM in assay [2]; 1.42 µM in assay [3]; 6.53 µM in assay [4]; 0.3 µM in [5]; 3.63 µM in assay [6]. Further, the GI50 in assay [7] is 0.273 µM; in [8], 1.35 µM; in assay [9], 6.73 µM. Also, the TGI in assay [1] turned out to be 83.7 µM; in [2] it was 1.96 µM; in assay [3], 5.24 µM; in assay [4], 34.4 µM; in [5], 2.54 µM; in [6] it was 14.1 µM. For the same molecule, the values for the TGI in [7], in assay [8] and in assay [9] were 0.944 µM, 17.3 µM and over 100 µM, respectively.

On to `N#Cc1cccc(C2SCc3nc4ccccc4n32)c1` (stereo not given), for which the TGI in assay [1] was over 100 µM; in [2], over 100 µM; in [3] it was over 100 µM; in assay [4] it was over 100 µM; in assay [6], over 100 µM; in assay [7], 65.2 µM. The TGI in [8], in assay [9] and in assay [10] was over 100 µM each time.

Regarding `O=C(c1ccccc1)N1CCc2c([nH]c3ccccc23)C1`, the TGI in [1] is over 100 µM; in assay [3], 43.1 µM; in assay [4] it was over 100 µM; in [5], 74.9 µM; in assay [6], over 100 µM; in assay [7], 47.6 µM. Besides, the TGI in assay [8] is over 100 µM; in assay [9], over 100 µM; in assay [10] it was 99.2 µM.

With `Cc1ccc(CNc2ccc(Cl)cc2NCc2ccc(C)c(O)c2)cc1O`, the GI50 was 8.27 µM in assay [1]; 8.55 µM in assay [2]; 7.65 µM in assay [3]; 6.2 µM in [4]; 6.75 µM in assay [5]; 7.21 µM in assay [6]. The GI50 in [8] was 5.75 µM; in assay [9] it was 8.4 µM; in assay [10], 5.42 µM. Moreover, the total growth inhibition concentration (TGI) in assay [1] came out at 15.4 µM; in assay [2] it was 16.1 µM; in [3] it was 19.2 µM; in assay [4], 14.7 µM; in [5], 21.9 µM; in assay [6], 14.2 µM. The TGI worked out at 18.2 µM in assay [8], 15.5 µM in assay [9] and 11.7 µM in assay [10].

On to `CCN(CC)c1ccc(C=C2C(=O)NC(=S)NC2=O)cc1`, for which the GI50 in assay [1] was 2.27 µM; in assay [2] it was 3.29 µM; in assay [3] it was 2.6 µM; in assay [4] it was 2.98 µM; in assay [5], 2.15 µM; in assay [6] it was 2.43 µM. Further, the GI50 was 9.25 µM in assay [7], 1.69 µM in assay [8] and 1.62 µM in [10]. Further, the TGI in [1] turned out to be 4.08 µM; in [2], 11.3 µM; in assay [3], 7.58 µM; in [4], 7.49 µM; in [5], 5.49 µM; in assay [6] it was 5.1 µM. Further, the TGI in assay [7] was 21.5 µM; in assay [8] it was 10.3 µM; in assay [10] it was 3.61 µM.

Take `O=C1C(=C2C(=O)c3ccccc3[N+]2=O)N([O-])c2ccccc21`: the TGI in assay [1] is 46.1 µM; in [2], 73.8 µM; in assay [3], 48.5 µM; in assay [5] it was 57.7 µM; in [6], over 100 µM; in [7] it was 32.5 µM. The TGI in assay [8] is 79.4 µM; in assay [9], 81.1 µM; in assay [10], over 100 µM.

Regarding `CN(C)CCCn1c2c(c3ccc(N4CCNCC4)cc3c1=O)C(=O)c1ccccc1-2`, the GI50 is 1.34 µM in assay [1]; 1.17 µM in [3]; 1.42 µM in [4]; 0.271 µM in assay [5]; 1.53 µM in [6]; 0.698 µM in assay [7]. Besides, the GI50 in assay [8] was 0.307 µM; in assay [9], 1.33 µM; in assay [10] it was 0.765 µM. Further, the TGI was 2.73 µM in assay [1]; 3.05 µM in [3]; 3.46 µM in [4]; 0.978 µM in assay [5]; 3.33 µM in assay [6]; 2.2 µM in [7]. The TGI is 1.69 µM in assay [8], 4.41 µM in assay [9] and 2.56 µM in [10].

In the case of `CC1(C)OC2OC(/C=C/[N+](=O)[O-])C3OC(C)(C)OC3C2O1` (stereo not given), the TGI in assay [1] stood at 27.7 µM; in assay [2] it was 47.1 µM; in assay [3] it was 10.8 µM; in [4], 10.8 µM; in [6] it was 32.9 µM; in assay [7], 31.7 µM. The concentration for total growth inhibition (TGI) came to 33.6 µM in assay [8], 9.56 µM in assay [9] and 34.8 µM in assay [10].

As for `NC1=Nc2cc(OCCCCN3Cc4ccccc4C3)c(OCC3CC3)cc2C12CCCC2`, the GI50 in assay [1] is 1.54 µM; in [2], 0.951 µM; in assay [3], 1.73 µM; in assay [4], 1.63 µM; in assay [5], 1.53 µM; in [7], 1.71 µM. Also, the GI50 in [8] is 1.61 µM; in assay [9], 1.75 µM; in assay [10] it was 1.46 µM. Moreover, the TGI was found to be 3.03 µM in [1]; 4.91 µM in assay [2]; 3.55 µM in [3]; 3.12 µM in assay [4]; 4.02 µM in assay [5]; 3.1 µM in assay [7]. Besides, the TGI was found to be 4.48 µM in [8], 3.45 µM in assay [9] and 2.88 µM in assay [10].

With `O=C(/C=C/c1ccccc1)c1ccccn1`, the total growth inhibition concentration (TGI) in [1] was 24.7 µM and 40.9 µM; in [2], 29.6 µM and 37.6 µM; in assay [3] it was 53.6 µM and 84.8 µM; in assay [5], 31.6 µM and 81.1 µM; in [6], 40.7 µM and 81.5 µM; in [7] it was 28.5 µM and 88.6 µM. Moreover, the TGI in [8] is 7.7 µM and 54.6 µM; in [9] it was 31 µM and 36.9 µM; in assay [10], 31 µM and 46.5 µM. In addition, the GI50 in [3] was 2.55 µM and 16.4 µM; in assay [5] it was 5.71 µM and 15.9 µM; in assay [8] it was 1.96 µM and 7.94 µM.
